Patent US12052991B2, “Substituted pyridinyloxybenzenes and salts thereof and use thereof as herbicidal agents” (Bayer Aktiengesellschaft, priority 2018, dated 2024)

Assays:
Assay type in all cases: in vivo
[1] = system: Agrostis tenuis (AGSTE); experiment: Herbicidal early post-emergence action (Table A1); settings: 1900 g/ha; scored visually 9 to 12 days after treatment; 100% = plants have died, 0% = like control plants
Experimental: (§1) Seeds of monocotyledonous and dicotyledonous weed plants were placed in 96-well microtiter plates in quartz sand and grown in a climatized chamber under controlled growth conditions. 5 to 7 days after sowing, the test plants were treated at the cotyledon stage. The compounds according to the invention, formulated in the form of emulsion concentrates (EC), were applied with a water application rate of the equivalent of 2200 liters per hectare. After the test plants had been left to stand in the climatized chamber for 9 to 12 days under optimum growth conditions, the effect of the preparations was scored visually in comparison to untreated controls. For example, 100% activity=the plants have died, 0% activity=like control plants. Tables A1 to A8 below show the effects of selected compounds of the general formula (I) according to Table 1 on various harmful plants and an application rate corresponding to 1900 g/ha, which were obtained by the experimental procedure mentioned above.

[2] = system: harmful plants AGSTE, DIPTE, LOLPE, MATCH, POAAN, SETVI, STEME and VERPE; experiment: Herbicidal early post-emergence action, summary of Tables A1-A8; settings: application rate of 1900 g of active ingredient per hectare; summary in words
Experimental: as §1, with “plants.” for “plants. Tables A1 to A8 below show the effects of selected compounds of the general formula (I) according to Table 1 on various harmful plants and an application rate corresponding to 1900 g/ha, which were obtained by the experimental procedure mentioned above.”
Tables A1 to A8 below show the effects of selected compounds of the general formula (I) according to Table 1 on various harmful plants and an application rate corresponding to 1900 g/ha, which were obtained by the experimental procedure mentioned above.
As the results of Tables A1-A8 show, compounds no.

[3] = system: Alopecurus myosuroides (ALOMY); experiment: Herbicidal pre-emergence action, test C (Table C9); settings: dosage 1280 g/ha; visual scoring after about 3 weeks; 100% = plants have died, 0% = like control plants
Text: (§2) Seeds of mono- and dicotyledonous weed plants were placed in plastic pots in sandy loam soil (doubly sown with one species each of mono- or dicotyledonous weed plants per pot) and covered with soil. The compounds of the invention, formulated in the form of wettable powders (WP) or as emulsion concentrates (EC), were then applied onto the surface of the covering soil as aqueous suspension or emulsion with addition of 0.5% additive at a water application rate of 600 liters per hectare (converted). After the treatment, the pots were placed in a greenhouse and kept under good growth conditions for the test plants. After about 3 weeks, the effect of the preparations was scored visually in comparison with untreated controls as percentages. For example, 100% activity=the plants have died, 0% activity=like control plants. Tables C1 to C12 below show the effects of selected compounds of the general formula (I) according to Table 1 on various harmful plants and an application rate corresponding to 1280 or 320 g/ha, which were obtained by the experimental procedure mentioned above.

[4] = system: Digitaria sanguinalis (DIGSA); experiment: Herbicidal pre-emergence action, test C (Table C10); settings: dosage 1280 g/ha; visual scoring after about 3 weeks; 100% = plants have died, 0% = like control plants
Text: as §2

[5] = system: Veronica persica (VERPE); experiment: Herbicidal post-emergence action (Table B12); settings: visual rating about 3 weeks after treatment, 100% = plants have died, 0% = like control plants
Summary of the method: (§3)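 Greenhouse pot-grown weeds in sandy loam, sprayed at the one-leaf stage (2–3 weeks post-sowing) with WP or EC formulations plus 0.5% additive at 600 l/ha water, at 1280 or 320 g/ha. Visual % activity versus untreated controls rated about 3 weeks later (100% = dead).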

[6] = system: Digitaria sanguinalis (DIGSA); experiment: Herbicidal post-emergence action (Table B10); settings: dosage 1280 g/ha; visual rating about 3 weeks after treatment; 100% = plants have died, 0% = like control plants
Experimental: (§4) Seeds of mono- and dicotyledonous weed plants were placed in plastic pots in sandy loam soil (doubly sown with in each case one species of mono- or dicotyledonous weed plants per pot), covered with soil and cultivated in a greenhouse under controlled growth conditions. 2 to 3 weeks after sowing, the test plants were treated at the one-leaf stage. The compounds of the invention, formulated in the form of wettable powders (WP) or as emulsion concentrates (EC), were applied onto the green parts of the plants as aqueous suspension or emulsion with addition of 0.5% additive at a water application rate of 600 liters per hectare (converted). After the test plants had been kept in the greenhouse under optimum growth conditions for about 3 weeks, the activity of the preparations was rated visually in comparison to untreated controls. For example, 100% activity=the plants have died, 0% activity=like control plants. Tables B1 to B12 below show the effects of selected compounds of the general formula (I) according to Table 1 on various harmful plants and an application rate corresponding to 1280 or 320 g/ha, which were obtained by the experimental procedure mentioned above.

[7] = system: Amaranthus retroflexus (AMARE); experiment: Herbicidal pre-emergence action, test C (Table C6); settings: visual scoring after about 3 weeks, 100% = plants have died, 0% = like control plants
Summary of the method: (§5)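 % herbicidal effect, visual, vs untreated; 0% = as control, 100% = plants dead. Scored ~3 wk post-application. Rate 1280 or 320 g/ha onto covering soil pre-emergence.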

[8] = system: harmful plants ABUTH, AMARE, ECHCG, LOLRI, MATIN, POAAN, SETVI, STEME, ALOMY, DIGSA, KCHSC and VERPE; experiment: Herbicidal pre-emergence action (test C), summary of Tables C1-C12; settings: application rate of 1280 or 320 g of active ingredient per hectare; summary in words
Summary of the method: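 Pre-emergence pot test in sandy loam: WP or EC formulations were sprayed onto the covering soil with 0.5% additive at 600 L/ha water, at 1280 or 320 g/ha. Plants were kept in the greenhouse, and activity was rated visually about 3 weeks later as % versus untreated controls (100% = dead).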

[9] = system: Veronica persica (VERPE); experiment: Herbicidal pre-emergence action, test C (Table C12); settings: visual scoring vs untreated controls
Summary of the method: as §5

[10] = system: harmful plants ABUTH, AMARE, ECHCG, LOLRI, MATIN, POAAN, SETVI, STEME, ALOMY, DIGSA, KCHSC and VERPE; experiment: Herbicidal post-emergence action, summary of Tables B1-B12; settings: application rate of 1280 or 320 g of active ingredient per hectare; summary in words
Summary of the method: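 Greenhouse weeds in sandy loam treated post-emergence at the one-leaf stage, 2–3 weeks after sowing, with WP or EC formulations sprayed with 0.5% additive at 600 L/ha water, 1280 or 320 g/ha. Damage rated visually after about 3 weeks versus untreated controls (0% = like control, 100% = dead).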

[11] = system: Stellaria media (STEME); experiment: Herbicidal post-emergence action (Table B8); settings: visual rating about 3 weeks after treatment, 100% = plants have died, 0% = like control plants
Summary of the method: as §3

[12] = system: Setaria viridis (SETVI); experiment: Herbicidal pre-emergence action, test C (Table C4); settings: dosage 1280 g/ha; visual scoring after about 3 weeks; 100% = plants have died, 0% = like control plants
Summary of the method: as §5

[13] = system: Abutilon theophrasti (ABUTH); experiment: Herbicidal post-emergence action (Table B5); settings: rated visually after about 3 weeks, 100% = plants have died, 0% = like control plants
Summary of the method: as §3

[14] = system: Stellaria media (STEME); experiment: Herbicidal pre-emergence action, test C (Table C8); settings: visual scoring after about 3 weeks, 100% = plants have died, 0% = like control plants
Summary of the method: as §5

[15] = system: Amaranthus retroflexus (AMARE); experiment: Herbicidal post-emergence action (Table B6); settings: visual rating about 3 weeks after treatment, 100% = plants have died, 0% = like control plants
Summary of the method: as §3

[16] = system: Poa annua (POAAN); experiment: Herbicidal post-emergence action (Table B3); settings: rated visually after about 3 weeks, 100% = plants have died, 0% = like control plants
Summary of the method: as §3

[17] = system: Poa annua (POAAN); experiment: Herbicidal pre-emergence action, test C (Table C3); settings: visual scoring after about 3 weeks, 100% = plants have died, 0% = like control plants
Summary of the method: as §5

[18] = system: Abutilon theophrasti (ABUTH); experiment: Herbicidal pre-emergence action, test C (Table C5); settings: dosage 1280 g/ha; visual scoring after about 3 weeks; 100% = plants have died, 0% = like control plants
Summary of the method: as §5

[19] = system: Echinochloa crus-galli (ECHCG); experiment: Herbicidal pre-emergence action, test C (Table C1); settings: dosage 1280 g/ha; visual scoring after about 3 weeks; 100% = plants have died, 0% = like control plants
Text: as §2

[20] = system: Matricaria inodora (MATIN); experiment: Herbicidal pre-emergence action, test C (Table C7); settings: dosage 1280 g/ha; visual scoring after about 3 weeks; 100% = plants have died, 0% = like control plants
Summary of the method: as §5

[21] = system: Echinochloa crus-galli (ECHCG); experiment: Herbicidal post-emergence action (Table B1); settings: rated visually after about 3 weeks, 100% = plants have died, 0% = like control plants
Experimental: as §4

[22] = system: Bassia scoparia (KCHSC); experiment: Herbicidal post-emergence action (Table B11); settings: visual rating about 3 weeks after treatment, 100% = plants have died, 0% = like control plants
Experimental: as §4

[23] = system: Alopecurus myosuroides (ALOMY); experiment: Herbicidal post-emergence action (Table B9); settings: rated visually after about 3 weeks, 100% = plants have died, 0% = like control plants
Experimental: as §4

Oc1ccc(-c2cc(C(F)F)no2)c(Oc2ccc(Cl)cn2)c1 [Example 1-42]
80%: Early post-emergence effect against Agrostis tenuis (AGSTE) [1]
very good herbicidal activity: herbicidal activity against the harmful plants of Tables A1-A8 in early post-emergence treatment [2]

FC(F)c1cc(-c2c(Oc3ccc(Cl)cn3)cccc2C2CC2)on1 [Example 1-77]
very good herbicidal activity: herbicidal activity against the harmful plants of Tables C1-C12 in pre-emergence treatment [8] | herbicidal activity against the harmful plants of Tables B1-B12 in post-emergence treatment [10]
90%: Pre-emergence action against Amaranthus retroflexus (AMARE) ([7]; dosage 320 g/ha) | Pre-emergence action against Veronica persica (VERPE) ([9]; dosage 320 g/ha) | Post-emergence action against Abutilon theophrasti (ABUTH) ([13]; 1280 g/ha)
100%: Pre-emergence action against Alopecurus myosuroides (ALOMY) [3] | Pre-emergence action against Digitaria sanguinalis (DIGSA) [4] | Post-emergence action against Veronica persica (VERPE) ([5]; dosage 320 g/ha) | Post-emergence action against Veronica persica (VERPE) ([5]; dosage 1280 g/ha) | Post-emergence action against Digitaria sanguinalis (DIGSA) [6] | Pre-emergence action against Amaranthus retroflexus (AMARE) ([7]; dosage 1280 g/ha) | Pre-emergence action against Veronica persica (VERPE) ([9]; dosage 1280 g/ha) | Post-emergence action against Stellaria media (STEME) ([11]; dosage 320 g/ha) | Post-emergence action against Stellaria media (STEME) ([11]; dosage 1280 g/ha) | Pre-emergence action against Setaria viridis (SETVI) [12] | Pre-emergence action against Stellaria media (STEME) ([14]; dosage 320 g/ha) | Pre-emergence action against Stellaria media (STEME) ([14]; dosage 1280 g/ha) | Post-emergence action against Amaranthus retroflexus (AMARE) ([15]; dosage 1280 g/ha) | Post-emergence action against Poa annua (POAAN) ([16]; 320 g/ha) | Post-emergence action against Poa annua (POAAN) ([16]; 1280 g/ha) | Pre-emergence action against Poa annua (POAAN) ([17]; dosage 1280 g/ha)

N#Cc1ccc(Oc2cccc(F)c2-c2cc(C(F)F)on2)nc1 [Example 1-11]
very good herbicidal activity: herbicidal activity against the harmful plants of Tables C1-C12 in pre-emergence treatment [8] | herbicidal activity against the harmful plants of Tables B1-B12 in post-emergence treatment [10]
90%: Pre-emergence action against Echinochloa crus-galli (ECHCG) [19] | Pre-emergence action against Setaria viridis (SETVI) [12] | Pre-emergence action against Poa annua (POAAN) ([17]; dosage 1280 g/ha) | Pre-emergence action against Matricaria inodora (MATIN) [20]
100%: Pre-emergence action against Abutilon theophrasti (ABUTH) [18] | Pre-emergence action against Amaranthus retroflexus (AMARE) ([7]; dosage 1280 g/ha) | Post-emergence action against Abutilon theophrasti (ABUTH) ([13]; 1280 g/ha) | Pre-emergence action against Stellaria media (STEME) ([14]; dosage 1280 g/ha) | Post-emergence action against Amaranthus retroflexus (AMARE) ([15]; dosage 320 g/ha) | Post-emergence action against Amaranthus retroflexus (AMARE) ([15]; dosage 1280 g/ha)

Cc1ccc(-c2cc(C(F)F)no2)c(Oc2ccc(Cl)cn2)c1 [Example 1-26]
100%: Post-emergence action against Echinochloa crus-galli (ECHCG) ([21]; 320 g/ha) | Post-emergence action against Echinochloa crus-galli (ECHCG) ([21]; 1280 g/ha) | Post-emergence action against Veronica persica (VERPE) ([5]; dosage 1280 g/ha) | Post-emergence action against Stellaria media (STEME) ([11]; dosage 1280 g/ha) | Post-emergence action against Abutilon theophrasti (ABUTH) ([13]; 1280 g/ha) | Pre-emergence action against Stellaria media (STEME) ([14]; dosage 320 g/ha) | Pre-emergence action against Stellaria media (STEME) ([14]; dosage 1280 g/ha) | Post-emergence action against Amaranthus retroflexus (AMARE) ([15]; dosage 1280 g/ha) | Post-emergence action against Bassia scoparia (KCHSC) ([22]; dosage 1280 g/ha) | Post-emergence action against Poa annua (POAAN) ([16]; 320 g/ha) | Post-emergence action against Poa annua (POAAN) ([16]; 1280 g/ha) | Pre-emergence action against Poa annua (POAAN) ([17]; dosage 1280 g/ha) | Post-emergence action against Alopecurus myosuroides (ALOMY) ([23]; 320 g/ha) | Post-emergence action against Alopecurus myosuroides (ALOMY) ([23]; 1280 g/ha) | Pre-emergence action against Matricaria inodora (MATIN) [20]
90%: Pre-emergence action against Abutilon theophrasti (ABUTH) [18] | Pre-emergence action against Alopecurus myosuroides (ALOMY) [3] | Pre-emergence action against Digitaria sanguinalis (DIGSA) [4] | Post-emergence action against Digitaria sanguinalis (DIGSA) [6] | Pre-emergence action against Veronica persica (VERPE) ([9]; dosage 1280 g/ha) | Pre-emergence action against Setaria viridis (SETVI) [12] | Post-emergence action against Abutilon theophrasti (ABUTH) ([13]; 320 g/ha) | Post-emergence action against Bassia scoparia (KCHSC) ([22]; dosage 320 g/ha) | Pre-emergence action against Poa annua (POAAN) ([17]; dosage 320 g/ha)
very good herbicidal activity: herbicidal activity against the harmful plants of Tables C1-C12 in pre-emergence treatment [8] | herbicidal activity against the harmful plants of Tables B1-B12 in post-emergence treatment [10]
